Assay results taken from publication PMC11240139, “Exploring the antitumor potential of novel quinoline derivatives via tubulin polymerization inhibition in breast cancer; design, synthesis and molecular docking” (RSC Advances, 2024).

Columns and labels:
MDA-MB-231 cells [1] = assay: Cell cycle analysis by flow cytometry (PI); format: cell-based; conditions: MDA-MB-231, IC50 dose, 24 h; control 10.42%
Method: Propidium Iodide Flow Cytometry Kit for Cell Cycle Analysis (Abcam) was used according to manufacturer's instructions. Briefly, MDA-MB 231 cells (2 × 10^5 cells) were seeded in 6-well plates and cultured for 24 h. […] Cells were collected, washed with PBS and centrifuged. Subsequently, the cells were re-suspended and fixed in 66% ethanol on ice for at least 2 h. The cells were stained with a working solution containing propidium iodide (PI) in the dark at 37 °C for 30 min. DNA content of the cells were measured by flow cytometry using FACSCalibur (BD Biosciences, Mountain View, CA). The data were analyzed using the CellQuest software (BD Biosciences).[21]

MDA-MB-231 cells [2] = assay: Cell apoptosis analysis (annexin V-FITC/PI); format: cell-based; conditions: MDA-MB-231, IC50 dose, 24 h
Method: Annexin-V-FITC Apoptosis Detection Kit (Biovision, USA) was used to determine apoptotic cells according to manufacturer's instructions. Briefly, MDA-MB 231 cells (2 × 10^5 cells) were seeded in 6-well plates and cultured for 24 h. […] Cells were collected, washed with PBS and centrifuged. The cells were re-suspended in 500 μL of 1× binding buffer. 5 μL of annexin V-FITC and 5 μL of propidium iodide (PI […]) were added and the cells were incubated in the dark at room temperature for 5 min. The fluorescence of the stained cells was analyzed by flow cytometry using FACSCalibur (BD Biosciences, Mountain View, CA). The data were analyzed using the CellQuest software (BD Biosciences).[53,54]

tubulin = biological target: T1, tubulin (Sus scrofa, UniProt P02550+P02554); set-up: method as in PMID 33203182, PMID 36893547, PMID 33730937, PMID 30525584, PMID 30530194; conditions: Fig. 4; read-out: tubulin inhibition IC50; cited from earlier work
T1 construct: purchased Cytoskeleton, USA
T1 sequence (P02554 whole entry): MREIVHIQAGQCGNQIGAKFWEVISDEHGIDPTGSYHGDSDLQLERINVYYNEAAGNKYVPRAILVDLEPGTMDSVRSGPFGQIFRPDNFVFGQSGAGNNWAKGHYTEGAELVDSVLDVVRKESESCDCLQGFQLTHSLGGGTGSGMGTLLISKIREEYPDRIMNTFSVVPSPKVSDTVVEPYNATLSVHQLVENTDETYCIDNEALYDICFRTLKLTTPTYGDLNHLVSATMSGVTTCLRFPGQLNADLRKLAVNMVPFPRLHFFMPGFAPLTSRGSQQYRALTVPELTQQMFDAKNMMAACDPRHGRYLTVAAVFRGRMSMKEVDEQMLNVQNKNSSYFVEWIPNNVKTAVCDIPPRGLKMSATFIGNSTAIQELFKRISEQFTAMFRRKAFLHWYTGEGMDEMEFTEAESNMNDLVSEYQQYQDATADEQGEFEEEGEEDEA
T1 sequence (P02550 whole entry): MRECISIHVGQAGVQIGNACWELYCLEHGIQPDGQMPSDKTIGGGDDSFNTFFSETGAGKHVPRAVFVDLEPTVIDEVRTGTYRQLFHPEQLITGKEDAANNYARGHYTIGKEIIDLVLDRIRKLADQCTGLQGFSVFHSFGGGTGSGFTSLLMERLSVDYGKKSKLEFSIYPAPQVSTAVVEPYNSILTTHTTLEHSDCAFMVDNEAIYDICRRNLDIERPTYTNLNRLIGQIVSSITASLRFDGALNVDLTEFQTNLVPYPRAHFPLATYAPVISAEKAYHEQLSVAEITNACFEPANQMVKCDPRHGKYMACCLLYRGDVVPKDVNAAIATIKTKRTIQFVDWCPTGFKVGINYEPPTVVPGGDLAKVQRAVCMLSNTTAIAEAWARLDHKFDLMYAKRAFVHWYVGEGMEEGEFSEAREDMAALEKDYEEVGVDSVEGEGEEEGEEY

SMILES: COc1cc2c(c(OC)c1OC)-c1ccc(OC)c(=O)cc1[C@@H](NC(C)=O)CC2 [Colchicine, colchicine]
- cells population at G2 and M phases (MDA-MB-231 cells [1]): 26.51%
- Early Apoptosis (%) (MDA-MB-231 cells [2]): 19.19 ± 0.87%
- Late Apoptosis (%) (MDA-MB-231 cells [2]): 6.62 ± 0.75%
- Necrosis (%) (MDA-MB-231 cells [2]): 11.41 ± 2.8%
- Total Cell Death (%) (MDA-MB-231 cells [2]): 37.22 ± 2.8%
- Necrosis (%) (MDA-MB-231 cells [2]; listed as colchicine): 11.41%

SMILES: COc1cc(C(=O)N/N=C/c2cc3ccc(OC(C)C)cc3nc2OC)cc(OC)c1OC [IX]
- IC50 (tubulin): 1320 nM

SMILES: C=C(c1ccc2c(ccn2C)c1)c1cc(C)nc2ccccc12 [XIII]
- IC50 (tubulin): 2090 nM

SMILES: COc1ccc2nc(Cl)c(C3CC(c4ccc(N)cc4)=NN3c3ccccc3)cc2c1 (stereo not shown) [XIV]
- IC50 (tubulin): 9.11 nM

SMILES: COc1ccc(OC)c(/C=C/C(=O)c2ccc(NC(=O)COc3cccc4cccnc34)cc2)c1 [X]
- IC50 (tubulin): 5320 nM
